Where two headings read alike, the source gives them in different places.
What was measured:
[1] = target: dopamine transporter (Homo sapiens, UniProt Q01959); assay: DA uptake: displacement of dopamine ligands in vitro (methods of Gu et al.); conditions: DA Uptake, Uptake Profile (IC50, nM), displacement of dopamine ligands in vitro
[2] = target: T1, norepinephrine transporter (Homo sapiens, UniProt P23975); assay: NE uptake: displacement of norephinephrine ligands in vitro (methods of Galli et al.); type: binding
T1 sequence (P23975 whole entry): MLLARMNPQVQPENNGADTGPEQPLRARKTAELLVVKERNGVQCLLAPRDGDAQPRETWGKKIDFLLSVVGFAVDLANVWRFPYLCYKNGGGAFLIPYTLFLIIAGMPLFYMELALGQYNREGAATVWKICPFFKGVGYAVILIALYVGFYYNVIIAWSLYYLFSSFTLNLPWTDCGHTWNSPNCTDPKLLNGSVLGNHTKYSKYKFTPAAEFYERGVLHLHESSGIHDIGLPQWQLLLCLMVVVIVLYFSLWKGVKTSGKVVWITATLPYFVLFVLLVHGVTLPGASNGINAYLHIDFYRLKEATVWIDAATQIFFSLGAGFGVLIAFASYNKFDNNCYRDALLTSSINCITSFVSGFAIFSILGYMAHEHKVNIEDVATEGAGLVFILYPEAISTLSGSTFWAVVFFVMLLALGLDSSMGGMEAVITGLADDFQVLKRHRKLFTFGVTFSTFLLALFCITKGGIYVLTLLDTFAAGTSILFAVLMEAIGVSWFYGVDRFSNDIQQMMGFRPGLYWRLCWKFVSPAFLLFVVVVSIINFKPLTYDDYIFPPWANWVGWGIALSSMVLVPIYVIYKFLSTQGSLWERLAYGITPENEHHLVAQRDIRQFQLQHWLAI

[3] = test system: rat; assay: Acute toxicity assessment, maximum tolerated dose i.v., rat; type: in vivo; conditions: rats
Description: (§1) An in vivo evaluation was carried out to determine the maximum tolerated dose of numerous test compounds in two animal species (mouse and rat). The compounds were administered i.v. and the animals were then observed for 72 h. Compounds 114, 115, 113, 110, 124, 125, 129, and 130 were solubilized in 5% dextrose (w/v)/polyethylene glycol 400 (4:1 v/v). Compounds 126, 127, 131, and 132 were solubilized in 10% hydroxypropyl-β-cyclodextrin (w/v).

[4] = target: T2, serotonin transporter (Homo sapiens, UniProt P31645); assay: 5-HT uptake: displacement of serotonin ligands in vitro (methods of Gu et al.); type: binding
T2 sequence (P31645 whole entry): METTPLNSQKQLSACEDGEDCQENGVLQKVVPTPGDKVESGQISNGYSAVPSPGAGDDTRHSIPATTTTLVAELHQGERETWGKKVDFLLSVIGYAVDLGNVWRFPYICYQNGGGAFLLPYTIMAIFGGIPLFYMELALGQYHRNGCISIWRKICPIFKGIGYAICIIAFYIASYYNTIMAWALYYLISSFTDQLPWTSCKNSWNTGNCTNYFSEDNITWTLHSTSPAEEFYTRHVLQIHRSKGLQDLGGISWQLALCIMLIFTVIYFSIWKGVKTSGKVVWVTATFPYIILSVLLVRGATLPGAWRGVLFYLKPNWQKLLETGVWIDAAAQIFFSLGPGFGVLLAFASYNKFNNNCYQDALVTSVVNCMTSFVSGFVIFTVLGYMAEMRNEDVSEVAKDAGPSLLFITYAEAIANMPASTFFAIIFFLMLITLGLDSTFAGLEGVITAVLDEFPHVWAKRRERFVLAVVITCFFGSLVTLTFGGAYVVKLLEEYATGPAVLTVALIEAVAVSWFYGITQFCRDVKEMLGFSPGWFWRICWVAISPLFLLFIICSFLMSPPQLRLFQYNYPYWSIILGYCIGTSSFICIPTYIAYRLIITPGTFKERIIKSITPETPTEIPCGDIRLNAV

[5] = test system: mouse; assay: Acute toxicity assessment, maximum tolerated dose i.v., mouse; type: in vivo; conditions: mice
Description: as §1

[6] = target: T1, norepinephrine transporter; assay: Functional activity, norephinephrine uptake inhibition in MDCK cell lines; type: cell-based
[7] = target: DAT (Homo sapiens, UniProt Q01959); assay: cell-based; parameters: expressed in transfected cells; conditions: hDAT cell line; read-out: DA Uptake, Functional Assays (antagonism, EC50)
Sequence of DAT (Q01959 whole entry): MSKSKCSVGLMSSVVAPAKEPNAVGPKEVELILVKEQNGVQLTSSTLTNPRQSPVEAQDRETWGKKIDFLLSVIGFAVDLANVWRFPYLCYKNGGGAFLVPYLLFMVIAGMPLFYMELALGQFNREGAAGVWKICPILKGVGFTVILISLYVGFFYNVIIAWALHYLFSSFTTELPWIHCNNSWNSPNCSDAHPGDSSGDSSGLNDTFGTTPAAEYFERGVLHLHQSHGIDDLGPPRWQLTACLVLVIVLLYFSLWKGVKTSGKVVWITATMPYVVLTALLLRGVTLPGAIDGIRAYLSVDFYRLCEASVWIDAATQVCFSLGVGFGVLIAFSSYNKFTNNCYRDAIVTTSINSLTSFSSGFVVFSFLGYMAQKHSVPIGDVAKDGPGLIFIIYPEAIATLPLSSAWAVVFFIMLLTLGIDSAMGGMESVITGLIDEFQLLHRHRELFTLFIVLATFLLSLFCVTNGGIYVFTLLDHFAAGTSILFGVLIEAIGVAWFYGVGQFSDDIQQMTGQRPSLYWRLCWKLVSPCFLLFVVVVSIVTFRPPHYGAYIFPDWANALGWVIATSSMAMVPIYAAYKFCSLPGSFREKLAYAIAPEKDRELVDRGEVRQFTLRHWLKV

[8] = target: T2, serotonin transporter; assay: Functional activity, serotonin uptake inhibition in human HEK-293 cell lines; type: cell-based; parameters: expressed in transfected cells; host or cells: HEK-293
[9] = test system: rats; assay: Behavioral despair assay in rats, 3 i.p. injections (Example 143); type: in vivo, rat; conditions: 3 i.p. injections 24 h, 5 h and 1 h before test
From the text: The objective of this study was to assess the antidepressant effects of test compounds 124, 125, 126, and 127 in the behavioral despair assay in rats according to the methods described by Porsolt R. D., Anton G., Blavet N., Jalfre M., Behavioural despair in rats: a new model sensitive to antidepressant treatment, Eur. J. Pharmacol., 1978, 47, 379-391. The animals were preconditioned in a pretest session, where the rats were individually forced to swim inside a vertical plexiglass cylinder containing water maintained at 19-20° C. After 15 minutes in the water, they were allowed to dry for 15 minutes in a heated enclosure. Twenty four hours later, they were replaced in the cylinder and the total duration of immobility was measured during a 5 minute test (test session). The test compounds and vehicle were administered as a series of 3 intraperitoneal injections 24 h, 5 h and 1 h before the 5 minute test on the second day.
(§2) The results are expressed as the percentage of variation of the total duration of immobility calculated from the mean value of the vehicle-treated group (% variation=[(immobility duration of vehicle-immobility duration of test compound)/(immobility duration of vehicle)]×100%).

[10] = test system: rats; type: in vivo, rat
Description: The animals were preconditioned in a pretest session, where the rats were individually forced to swim inside a vertical plexiglass cylinder containing water maintained at 19-20° C. […] Twenty four hours later, the compounds were administered intraperitoneal to the animals. One hour after administration of the test compound, animals were put back into the cylinder containing water. The total duration of immobility was measured during the last 4 minutes of a 6 minute test.
as §2

[11] = NE Uptake, Uptake Profile (IC50, nM)
[12] = displacement of serotonin ligands in vitro, read-out: 5-HT Uptake, Uptake Profile (IC50)
[13] = human HEK-293 cell lines, read-out: 5-HT Uptake, Functional Assays (antagonism, EC50)

Sequence of dopamine transporter (Q01959 whole entry): as above

SMILES	IC50 [1]	IC50 [2, 11]	IC50 [4, 12]	EC50 [7]	EC50 [8, 13]	EC50 [6]	also measured
OC[C@H]1[C@@H](COc2ccc(C(F)(F)F)cc2)CCCN1CC1(c2ccc(Cl)cc2)CCC1 (single isomer, unassigned) [compound 131, cis-[1-[1-(4-chloro-phenyl)-cyclobutylmethyl]-3-(4-trifluoromethyl-phenoxymethyl)-piperidin-2-yl]-methanol]	< 100 nM	< 1000 nM	< 1000 nM	–	–	–	tolerability and mortality after 72 h ([3]; 30 mg/kg i.v.): well tolerated; tolerability and mortality after 72 h ([5]; 30 mg/kg i.v.): well tolerated
OC[C@H]1[C@@H](COc2ccc(C(F)(F)F)cc2)CCCN1CC1(c2ccc(Cl)cc2)CCC1 (single isomer, unassigned) [compound 132, cis-[1-[1-(4-chloro-phenyl)-cyclobutylmethyl]-3-(4-trifluoromethyl-phenoxymethyl)-piperidin-2-yl]-methanol]	< 10 nM	< 100 nM	< 1000 nM	–	–	–	tolerability and mortality after 72 h ([3]; 30 mg/kg i.v.): well tolerated; tolerability and mortality after 72 h ([5]; 30 mg/kg i.v.): well tolerated
OC(CN1CCCC(CCc2ccccc2)C1)c1ccc(Cl)cc1 (single isomer, unassigned) [compound 143, 1-(4-Chloro-phenyl)-2-(3-phenethyl-piperidin-1-yl)-ethanol]	< 100 nM	< 100 nM	< 10 nM	–	–	–	tolerability and mortality after 72 h ([3]; 5 mg/kg i.v.): tolerated; tolerability and mortality after 72 h ([5]; 5 mg/kg i.v.): tolerated
OC(CN1CCCC(CCc2ccccc2)C1)c1ccc(Cl)cc1 (single isomer, unassigned) [compound 144, 1-(4-Chloro-phenyl)-2-(3-phenethyl-piperidin-1-yl)-ethanol]	< 10 nM	< 100 nM	< 10 nM	–	–	–	tolerability and mortality after 72 h ([3]; 5 mg/kg i.v.): tolerated; tolerability and mortality after 72 h ([5]; 5 mg/kg i.v.): tolerated
OC(CN1CCCC(COc2ccc(C(F)(F)F)cc2)C1)C1(c2ccccc2OC(F)(F)F)CCC1 (single isomer, unassigned) [compound 225, 1-[1-(2-Trifluoromethoxy-phenyl)-cyclobutyl]-2-[3-(4-trifluoromethyl-phenoxymethyl)-piperidin-1-yl]-ethanol]	< 10 nM	–	< 1000 nM	> 1000 nM	> 1000 nM	–	EC50 ([6]; read-out: NE Uptake, Functional Assays (antagonism, EC50), MDCK cell lines): > 1000 nM; IC50 ([2]; read-out: NE Uptake, Uptake Profile (IC50)): > 1000 nM
CN(C)CCCN1c2ccccc2CCc2ccccc21 [Imipramine]	–	–	–	–	–	–	% variation of the total duration of immobility ([9]; 30 mg/kg): 55%
Clc1ccc(C2(CN3CCC[C@@H](CNc4ccccc4)C3)CCC2)cc1 [compound 28, {1-[1-(4-Chloro-phenyl)-cyclobutylmethyl]-piperidin-3-R-ylmethyl}-phenyl-amine]	< 1000 nM	< 1000 nM	< 1000 nM	< 100 nM	< 1000 nM	< 1000 nM	–
Clc1ccc(C2(CN3CCCC(COc4ccc5c(c4)OCO5)C3)CCC2)cc1 (stereo not drawn) [compound 83]	< 100 nM	< 1000 nM	< 1000 nM	< 10 nM	< 100 nM	< 1000 nM	–
Fc1ccc(OCC2CCCN(CC3(c4ccc(Cl)cc4)CCC3)C2)cc1 (stereo not drawn) [compound 86, 1-[1-(4-Chloro-phenyl)-cyclobutylmethyl]-3-(4-fluoro-phenoxmethyl)-piperidine]	< 100 nM	< 1000 nM	< 1000 nM	< 10 nM	< 1000 nM	< 1000 nM	–
CC(Oc1ccc(C(F)(F)F)cc1)C1CCCN(CC2(c3ccc(Cl)cc3)CCC2)C1 (stereo not drawn) [compound 99, 1-[1-(4-chloro-phenyl)-cyclobutylmethyl]-3-[1-(4-trifluoromethyl-phenoxy)-ethyl]-piperidine]	< 100 nM	< 1000 nM	< 1000 nM	< 10 nM	> 1000 nM	< 1000 nM	–
FC(F)(F)c1ccc(OCC2CN(CC3(c4ccc(Cl)cc4)CCC3)CCO2)cc1 (stereo not drawn) [compound 102]	< 100 nM	> 1000 nM	–	< 10 nM	–	< 10 nM	EC50 ([8]; 5-HT Uptake, Functional Assays (antagonism, EC50, nM)): > 1000 nM; IC50 ([4]; 5-HT Uptake, Uptake Profile (IC50, nM)): > 1000 nM
O=C(CN1CCC[C@H](COc2ccc(C(F)(F)F)cc2)C1)C1(c2ccc(Cl)cc2)CCC1 [compound 123, S-1-[1-(4-Chloro-phenyl)-cyclobutyl]-2-[3-(4-trifluoromethyl-phenoxymethyl)-piperidin-1-yl]-ethanone]	< 10 nM	< 1000 nM	< 1000 nM	< 10 nM	< 1000 nM	< 1000 nM	–
O[C@@H](CN1CCC[C@H](COc2ccc(C(F)(F)F)cc2)C1)C1(c2ccc(Cl)cc2)CCC1 [compound 125, 1R-1-[1-(4-Chloro-phenyl)-cyclobutyl]-2-[(3S)-3-(4-trifluoromethyl-phenoxymethyl)-piperidin-1-yl]-ethanol]	< 10 nM	< 100 nM	< 1000 nM	< 10 nM	< 1000 nM	< 1000 nM	% variation of the total duration of immobility ([10]; 10 mg/kg i.p., 1 h before test): 55%; tolerability and mortality after 72 h ([3]; 30 mg/kg i.v.): well tolerated; tolerability and mortality after 72 h ([5]; 30 mg/kg i.v.): well tolerated; % variation of the total duration of immobility ([9]; 2.5 mg/kg): 12%
O=C(CN1CCC[C@@H](COc2ccc(C(F)(F)F)cc2)C1)C1(c2ccc(Cl)cc2)CCC1 [compound 128, S-1-[1-(4-Chloro-phenyl)-cyclobutyl]-2-[3-(4-trifluoromethyl-phenoxymethyl)-piperidin-1-yl]-ethanone]	< 100 nM	< 1000 nM	< 1000 nM	< 10 nM	< 1000 nM	< 1000 nM	–
FC(F)(F)c1ccc(COC[C@H]2CCCN(CC3(c4ccc(Cl)cc4)CCC3)C2)cc1 [compound 129, S-1-[1-(4-Chloro-phenyl)-cyclobutylmethyl]-3-(4-trifluoromethyl-benzyloxymethyl)-piperidine]	< 10 nM	< 100 nM	> 1000 nM	< 10 nM	< 100 nM	< 100 nM	tolerability and mortality after 72 h ([3]; 30 mg/kg i.v.): well tolerated; tolerability after 72 h ([5]; 20 mg/kg i.v.): well tolerated
FC(F)(F)c1ccc(COC[C@@H]2CCCN(CC3(c4ccc(Cl)cc4)CCC3)C2)cc1 [compound 130, R-1-[1-(4-Chloro-phenyl)-cyclobutylmethyl]-3-(4-trifluoromethyl-benzyloxymethyl)-piperidine]	< 100 nM	< 1000 nM	< 1000 nM	< 10 nM	> 1000 nM	< 100 nM	tolerability and mortality after 72 h ([3]; 30 mg/kg i.v.): well tolerated; tolerability and mortality after 72 h ([5]; 30 mg/kg i.v.): well tolerated
OC(CN1CCC[C@@H](CCc2ccccc2)C1)c1ccc(Cl)cc1 (stereo partly drawn) [compound 233]	< 10 nM	< 100 nM	< 10 nM	< 10 nM	< 10 nM	< 10 nM	–
CN1Cc2c(N)cccc2C(c2ccccc2)C1 (stereo not drawn) [nomifensine, reference compound]	–	–	–	–	–	–	% variation of the total duration of immobility ([10]; rat, in vivo): 78%
